Measurements taken from patent US11180462B2, “Microbiocidal oxadiazole derivatives” (SYNGENTA PARTICIPATIONS AG, priority 2015, dated 2021).

What was measured:
[1] = test system: Glomerella lagenarium (Colletotrichum lagenarium); experiment: Fungicidal activity against Glomerella lagenarium (Colletotrichum lagenarium) liquid culture / cucumber / preventative (anthracnose); type: cell-based; settings: Colletotrichum orbiculare; 20 ppm in the applied formulation; liquid culture (PDB), growth inhibition measured photometrically after 3 to 4 days; compared to untreated control; read-out: disease control
How it was run: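 Percent activity against the untreated check was derived from photometric growth measurements made 2 to 7 days after conidia in potato dextrose broth were combined with compound at 20 ppm. Cultures were kept dark at 24 °C and 96% humidity.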

[2] = test system: Puccinia recondita f. Sp. Tritici; experiment: Fungicidal activity against Puccinia recondita f. sp. tritici / wheat / leaf disc preventative (brown rust); type: in vivo; settings: foliar, 200 ppm in the applied formulation, wheat leaf segments, preventative, compared to untreated control leaf disks, read-out: disease control
How it was run: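 200 ppm spray on wheat cv. Kanzler leaf segments; spore inoculation +1 day; 19° C., 75% rh, 12 h/12 h light cycle; single rating of % control vs untreated at 7 to 9 days.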

[3] = test system: Puccinia recondita f. Sp. Tritici; experiment: Fungicidal activity against Puccinia recondita f. sp. tritici / wheat / leaf disc curative (brown rust); type: in vivo; settings: foliar, 24 h, 200 ppm in the applied formulation, wheat leaf segments, curative (applied 1 day after inoculation), compared to untreated control leaf disks, read-out: disease control
Description: Leaf disks or leaf segments of various plant species are cut from plants grown in a greenhouse. The cut leaf disks or segments are placed in multiwell plates (24-well format) onto water agar. The leaf disks are sprayed with a test solution before (preventative) or after (curative) inoculation. Compounds to be tested are prepared as DMSO solutions (max. 10 mg/ml) which are diluted to the appropriate concentration with 0.025% Tween20 just before spraying. The inoculated leaf disks or segments are incubated under defined conditions (temperature, relative humidity, light, etc.) according to the respective test system. A single evaluation of disease level is carried out 3 to 14 days after inoculation, depending on the pathosystem. Percent disease control relative to the untreated check leaf disks or segments is then calculated.
Fungicidal Activity Against Puccinia recondita f. Sp. Tritici/Wheat/Leaf Disc Curative (Brown Rust)
Wheat leaf segments cv. Kanzler are placed on agar in multiwell plates (24-well format). The leaf segments are then inoculated with a spore suspension of the fungus. Plates were stored in darkness at 19° C. and 75% relative humidity. The formulated test compound diluted in water was applied 1 day after inoculation. The leaf segments were incubated at 19° C. and 75% relative humidity under a light regime of 12 hours light/12 hours darkness in a climate cabinet and the activity of a compound was assessed as percent disease control compared to untreated when an appropriate level of disease damage appears in untreated check leaf segments (6 to 8 days after application).
The following compounds at 200 ppm in the applied formulation give at least 80% disease control in this test when compared to untreated control leaf disks under the same conditions, which show extensive disease development.

CON(Cc1ccc(-c2noc(C(F)(F)F)n2)cc1)C(=O)C1CC1c1ccccc1 (stereo not drawn) [Compound 1.25, N-methoxy-2-phenyl-N-[[4-[5-(trifluoromethyl)-1,2,4-oxadiazol-3-yl]phenyl]methyl]-cyclopropane-carboxamide]
≥ 80%: inhibition of growth at 20 ppm [1] | pest or weed control at 200 ppm [2] | pest or weed control at 200 ppm [3]

O=C(Cc1ccc(Cl)cc1)N(Cc1ccc(-c2noc(C(F)(F)F)n2)cc1)C1CC1 [Compound 1.127, 2-(4-chlorophenyl)-N-cyclopropyl-N-[[4-[5-(trifluoromethyl)-1,2,4-oxadiazol-3-yl]phenyl]methyl]-acetamide]
≥ 80%: inhibition of growth at 20 ppm [1] | pest or weed control at 200 ppm [2] | pest or weed control at 200 ppm [3]

C#CCOc1ccc(C(=O)N(Cc2ccc(-c3noc(C(F)(F)F)n3)cc2)C2CC2)cc1F [Compound 1.129, N-cyclopropyl-3-fluoro-4-prop-2-ynoxy-N-[[4-[5-(trifluoromethyl)-1,2,4-oxadiazol-3-yl]phenyl]methyl]-benzamide]
≥ 80%: inhibition of growth at 20 ppm [1] | pest or weed control at 200 ppm [2] | pest or weed control at 200 ppm [3]

O=C(c1cccc2nnsc12)N(Cc1ccc(-c2noc(C(F)(F)F)n2)cc1)C1CC1 [Compound 1.139, N-cyclopropyl-N-[[4-[5-(trifluoromethyl)-1,2,4-oxadiazol-3-yl]phenyl]methyl]-1,2,3-benzothiadiazole-7-carboxamide]
≥ 80%: inhibition of growth at 20 ppm [1] | pest or weed control at 200 ppm [2] | pest or weed control at 200 ppm [3]

C#CCN(Cc1ccc(-c2noc(C(F)(F)F)n2)cc1)C(=O)C1(C(F)(F)F)CCC1 [Compound 1.161, N-prop-2-ynyl-1-(trifluoromethyl)-N-[[4-[5-(trifluoromethyl)-1,2,4-oxadiazol-3-yl]phenyl]methyl]-cyclobutane-carboxamide]
≥ 80%: inhibition of growth at 20 ppm [1] | pest or weed control at 200 ppm [2] | pest or weed control at 200 ppm [3]

C#CCN(Cc1ccc(-c2noc(C(F)(F)F)n2)cc1)C(=O)CCCCC [Compound 1.162, N-prop-2-ynyl-N-[[4-[5-(trifluoromethyl)-1,2,4-oxadiazol-3-yl]phenyl]methyl]-hexanamide]
≥ 80%: inhibition of growth at 20 ppm [1] | pest or weed control at 200 ppm [2] | pest or weed control at 200 ppm [3]

CC(C)(C)C(=O)N(Cc1ccc(-c2noc(C(F)(F)F)n2)cc1)CC1CC1 [Compound 1.225, N-(cyclopropylmethyl)-2,2-dimethyl-N-[[4-[5-(trifluoromethyl)-1,2,4-oxadiazol-3-yl]phenyl]methyl]-propanamide]
≥ 80%: inhibition of growth at 20 ppm [1] | pest or weed control at 200 ppm [2] | pest or weed control at 200 ppm [3]

CCC(COC)C(=O)N(Cc1ccc(-c2noc(C(F)(F)F)n2)cc1)CC1CC1 (stereo not drawn) [Compound 1.237, N-(cyclopropylmethyl)-2-(methoxymethyl)-N-[[4-[5-(trifluoromethyl)-1,2,4-oxadiazol-3-yl]phenyl]methyl]-butanamide]
≥ 80%: inhibition of growth at 20 ppm [1] | pest or weed control at 200 ppm [2] | pest or weed control at 200 ppm [3]

CC#CC(=O)N(OC)C(C)c1ccc(-c2noc(C(F)(F)F)n2)cc1 (stereo not drawn) [Compound 1.248, N-methoxy-N-[1-[4-[5-(trifluoromethyl)-1,2,4-oxadiazol-3-yl]phenyl]ethyl]but-2-ynamide]
≥ 80%: inhibition of growth at 20 ppm [1] | pest or weed control at 200 ppm [2] | pest or weed control at 200 ppm [3]

CON(C(=O)C1CCCCO1)C(C)c1ccc(-c2noc(C(F)(F)F)n2)cc1 (stereo not drawn) [Compound 1.249, N-methoxy-N-[1-[4-[5-(trifluoromethyl)-1,2,4-oxadiazol-3-yl]phenyl]ethyl]-tetrahydropyran-2-carboxamide]
≥ 80%: inhibition of growth at 20 ppm [1] | pest or weed control at 200 ppm [2] | pest or weed control at 200 ppm [3]

CON(C(=O)C1CSC1)C(C)c1ccc(-c2noc(C(F)(F)F)n2)cc1 (stereo not drawn) [Compound 1.259, N-methoxy-N-[1-[4-[5-(trifluoromethyl)-1,2,4-oxadiazol-3-yl]phenyl]ethyl]-thietane-3-carboxamide]
≥ 80%: inhibition of growth at 20 ppm [1] | pest or weed control at 200 ppm [2] | pest or weed control at 200 ppm [3]

COCCC(=O)N(OC)C(C)c1ccc(-c2noc(C(F)(F)F)n2)cc1 (stereo not drawn) [Compound 1.260, N,3-dimethoxy-N-[1-[4-[5-(trifluoromethyl)-1,2,4-oxadiazol-3-yl]phenyl]ethyl]-propanamide]
≥ 80%: inhibition of growth at 20 ppm [1] | pest or weed control at 200 ppm [2] | pest or weed control at 200 ppm [3]

COCCOCC(=O)N(OC)C(C)c1ccc(-c2noc(C(F)(F)F)n2)cc1 (stereo not drawn) [Compound 1.266, N-methoxy-2-(2-methoxyethoxy)-N-[1-[4-[5-(trifluoromethyl)-1,2,4-oxadiazol-3-yl]phenyl]ethyl]-acetamide]
≥ 80%: inhibition of growth at 20 ppm [1] | pest or weed control at 200 ppm [2] | pest or weed control at 200 ppm [3]

CON(C(=O)COC(C)=O)C(C)c1ccc(-c2noc(C(F)(F)F)n2)cc1 (stereo not drawn) [Compound 1.270, [2-[methoxy-[1-[4-[5-(trifluoromethyl)-1,2,4-oxadiazol-3-yl]phenyl]ethyl]-amino]-2-oxo-ethyl] acetate]
≥ 80%: inhibition of growth at 20 ppm [1] | pest or weed control at 200 ppm [2] | pest or weed control at 200 ppm [3]

CON(C(=O)C1OCCO1)C(C)c1ccc(-c2noc(C(F)(F)F)n2)cc1 (stereo not drawn) [Compound 1.276, N-methoxy-N-[1-[4-[5-(trifluoromethyl)-1,2,4-oxadiazol-3-yl]phenyl]ethyl]-1,3-dioxolane-2-carboxamide]
≥ 80%: inhibition of growth at 20 ppm [1] | pest or weed control at 200 ppm [2] | pest or weed control at 200 ppm [3]

CON(C(=O)C1CC1)C(C)c1ccc(-c2noc(C(F)(F)F)n2)cc1 (stereo not drawn) [Compound 1.279, N-methoxy-N-[1-[4-[5-(trifluoromethyl)-1,2,4-oxadiazol-3-yl]phenyl]ethyl]-cyclopropane-carboxamide]
≥ 80%: inhibition of growth at 20 ppm [1] | pest or weed control at 200 ppm [2] | pest or weed control at 200 ppm [3]

COCCCC(=O)N(OC)C(C)c1ccc(-c2noc(C(F)(F)F)n2)cc1 (stereo not drawn) [Compound 1.280, N,4-dimethoxy-N-[1-[4-[5-(trifluoro-methyl)-1,2,4-oxadiazol-3-yl]phenyl]ethyl]-butanamide]
≥ 80%: inhibition of growth at 20 ppm [1] | pest or weed control at 200 ppm [2] | pest or weed control at 200 ppm [3]

CCCON(Cc1ccc(-c2noc(C(F)(F)F)n2)cc1)C(=O)C(C)CC (stereo not drawn) [Compound 1.308, 2-methyl-N-propoxy-N-[[4-[5-(trifiuoromethyl)-1,2,4-oxadiazol-3-yl]phenyl]methyl]-butanamide]
≥ 80%: inhibition of growth at 20 ppm [1] | pest or weed control at 200 ppm [2] | pest or weed control at 200 ppm [3]

CC#CC(=O)N(CCOC)Cc1ccc(-c2noc(C(F)(F)F)n2)cc1 [Compound 1.323, N-(2-methoxyethyl)-N-[[4-[5-(trifluoromethyl)-1,2,4-oxadiazol-3-yl]phenyl]methyl]but-2-yaamide]
≥ 80%: inhibition of growth at 20 ppm [1] | pest or weed control at 200 ppm [2] | pest or weed control at 200 ppm [3]

CC=CC(=O)N(CCOC)Cc1ccc(-c2noc(C(F)(F)F)n2)cc1 [Compound 1.326, N-(2-methoxyethyl)-N-[[4-[5-(trifluoromethyl)-1,2,4-oxadiazol-3-yl]phenyl]methyl]but-2-enamide]
≥ 80%: inhibition of growth at 20 ppm [1] | pest or weed control at 200 ppm [2] | pest or weed control at 200 ppm [3]

COCCN(Cc1ccc(-c2noc(C(F)(F)F)n2)cc1)C(=O)COC [Compound 1.328, 2-methoxy-N-(2-methoxyethyl)-N-[[4-[5-(trifluoromethyl)-1,2,4-oxadiazol-3-yl]phenyl]methyl]-acetamide]
≥ 80%: inhibition of growth at 20 ppm [1] | pest or weed control at 200 ppm [2] | pest or weed control at 200 ppm [3]

CC=C(C)C(=O)N(CCOC)Cc1ccc(-c2noc(C(F)(F)F)n2)cc1 [Compound 1.330, N-(2-methoxyethyl)-2-methyl-N-[[4-[5-(trifluoromethyl)-1,2,4-oxadiazol-3-yl]phenyl]methyl]-but-2-enamide]
≥ 80%: inhibition of growth at 20 ppm [1] | pest or weed control at 200 ppm [2] | pest or weed control at 200 ppm [3]

COCCN(Cc1ccc(-c2noc(C(F)(F)F)n2)cc1)C(=O)C1CCCC1 [Compound 1.332, N-(2-methoxyethyl)-N-[[4-[5-(trifluoromethyl)-1,2,4-oxadiazol-3-yl]phenyl]methyl]-cyclopentane-carboxamide]
≥ 80%: inhibition of growth at 20 ppm [1] | pest or weed control at 200 ppm [2] | pest or weed control at 200 ppm [3]
